Assay results published in patent US12589092B2, “Polycyclic compound acting as kinase inhibitor” (HANGZHOU INNOGATE PHARMA CO., LTD., priority 2020, dated 2026).
pIC50: −log10 of the molar value. Like-named read-outs stand apart in the source and are kept apart here.

Tests used:
CDK2/CycA2 = CDK2/CycA2 (Homo sapiens, UniProt P24941); test: CDK2 kinase activity inhibition assay (caliper mobility shift); format: biochemical; conditions: CDK2/CycA2 12 nM, ATP 39 μM; read-out: CDK2 kinase inhibitory activity (IC50)
Procedure: (§1) 1) CDK2, CDK4 and CDK6 Kinase Activity Inhibition Assay
(§2) In vitro enzymatic activity of the CDK isoforms CDK2/CycA2, CDK4/CycD3 and CDK6/cycD3 were measured using caliper mobility shift assay. Dissolve the compounds in DMSO and dilute them with corresponding kinase buffer (CDK2/CycA2 and CDK6/CycD3 were assayed with buffer conditions of 50 mM HEPES (pH 7.5), 10 mM MgCl2, 0.0015% Brij-35 and 2 mM dithiothreitol; CDK4/CycD3 was assayed with buffer condition of 20 mM HEPES (pH 7.5), 10 mM MgCl2, 0.01% Triton X-100 and 2 mM dithiothreitol). Add 5 μl of compound (10% DMSO) with 5 times the final concentration of the reaction to a 384-well plate. […] Collect conversion data on Caliper EZ Reader II (Caliper Life Sciences). Convert the conversion rate into inhibition rate data (% inhibition rate=(max−conversion rate)/(max−min)*100). […] Draw a curve with the concentration and inhibition rate of the compound as abscissa and ordinate, and use XLFit excel add-in version 4.3.1 software to fit the curve and calculate IC50.

CDK4/CycD3 = CDK4/CycD3 (Homo sapiens, UniProt P11802); test: CDK4 kinase activity inhibition assay (caliper mobility shift); format: biochemical; conditions: CDK4/CycD3 10 nM, ATP 221 μM; read-out: CDK4 kinase inhibitory activity (IC50)
Procedure: as §1, §2

CDK6/cycD3 = CDK6/cycD3 (Homo sapiens, UniProt Q00534); test: CDK6 kinase activity inhibition assay (caliper mobility shift); format: biochemical; conditions: CDK6/cycD3 15 nM, ATP 800 μM; read-out: CDK6 kinase inhibitory activity (IC50)
Procedure: as §1, §2

CDK5/p35NCK = CDK5/p35NCK (Homo sapiens, UniProt Q00535); test: CDK5 kinase activity inhibition assay (ADP-Glo); format: biochemical; conditions: read-out: CDK5 kinase inhibitory activity (IC50)
Procedure: (§3) 3) CDK5, CDK9 and CDK16 Kinase Activity Inhibition Assay
(§4) CDK5/p35NCK, CDK9/CycT1 and CDK16/CycY protein kinase activities were determined using the ADP-Glo Kinase Assay. Dilute the positive compound and the test compound (10 mM stock solution) 25-fold with 100% DMSO, make a 4-fold serial dilution in a 96-well dilution plate, and add 1 μL of the compound to 49 μL of kinase reaction buffer (1 mM Tris, 20 mM MgCl2, 0.10% BSA and 0.5 mM DTT) on a microplate shaker for 20 min. Transfer 2 μL of 2× kinase to the 384-well reaction plate, add 1 μL of the test compound to the 384-well reaction plate, centrifuge at 1000 rpm/min for 1 min, and incubate at 25° C. for 10 min. Transfer 1 μL of the 4× substrate mix to the 384-well reaction plate, centrifuge at 1000 rpm/min for 1 min, and incubate at 25° C. for 60 min. Transfer 4 μL of ADP-Glo to the 384-well reaction plate to centrifuge at 1000 rpm/min for 1 min, and incubate at 25° C. for 40 min. Transfer 8 μL of detection solution to the 384-well reaction plate to centrifuge at 1000 rpm/min for 1 min, and incubate at 25° C. for 40 min. The RLU (Relative luminescence unit) signal was read using a Biotek multifunctional plate reader. Signal intensity is used to characterize the degree of kinase activity. Compound inhibition rate data: % inhibition rate=[1−(compound mean RLU−positive control mean RLU)/(negative control mean RLU−positive control mean RLU)]*100. Taking the log value of the concentration as the X axis and the percentage inhibition rate as the Y axis, the log(inhibitor) vs. response-Variable slope of the analysis software GraphPad Prism 5 was used to fit the dose-response curve to obtain the IC50 value of each compound on the enzyme activity.

CDK9/CycT1 = CDK9/CycT1 (Homo sapiens, UniProt P50750); test: CDK9 kinase activity inhibition assay (ADP-Glo); format: biochemical; conditions: read-out: CDK9 kinase inhibitory activity (IC50)
Procedure: as §3, §4

CDK16/CycY = CDK16/CycY (Homo sapiens, UniProt Q00536); test: CDK16 kinase activity inhibition assay (ADP-Glo); format: biochemical; conditions: read-out: CDK16 kinase inhibitory activity (IC50)
Procedure: as §3, §4

TRKA = TRKA (Homo sapiens, UniProt P04629); test: TRKA kinase activity inhibition assay (caliper mobility shift); format: biochemical
Procedure: 2) TRKA Kinase Activity Inhibition Assay
TRKA protein kinase activity was measured by caliper mobility shift assay. Compounds were dissolved in DMSO to make up 10 mM stock solutions. Prepare 1× kinase reaction buffer to serially dilute compounds. 250 nL 100× final concentration of the test compounds were transferred to destination plate 3573 by dispenser Echo 550. Prepare a 2.5× final concentration of kinase solution with 1× kinase buffer. Add 10 μL of 2.5× final kinase solution to compound wells and positive control wells; add 10 μL of 1× kinase buffer to negative control wells. Centrifuge at 1000 rpm for 30 s, shake and mix the reaction plate and incubate at room temperature for 10 min. Prepare a mixture of ATP and kinase substrate solution at 5/3× final concentration with 1× kinase buffer. The reaction was initiated by adding 15 μL of the mixed solution. Centrifuge the 384-well plate at 1000 rpm for 30 s, shake and mix well, and incubate at room temperature for the corresponding time. Add 30 μL of stop solution to stop the kinase reaction, centrifuge at 1000 rpm for 30 s, mix by shaking, and read the conversion rate data with Caliper EZ Reader. Convert conversion to inhibition data (% inhibition=(max DMSO well conversion−sample well conversion)/(max DMSO well conversion−min negative control conversion)*100). Wherein max refers to the conversion rate of the DMSO control, and min refers to the conversion rate of the non-enzymatic control. Draw a curve with the concentration and inhibition rate of the compound as abscissa and ordinate, and use XLFit excel add-in version 4.3.1 software to fit the curve and calculate IC50.

[1] = Pharmacokinetic study in rats (intragastrical administration, plasma LC-MS/MS); conditions: male, SD, rat, po, 3 mg/kg
Procedure: Instruments: XEVO TQ-S LC/MS instrument produced by Waters. All measurement data is collected and processed by Masslynx V4.1 software, and the data is calculated and processed by Microsoft Excel. Using WinNonLin 8.0 software, the statistical moment method was used to calculate the pharmacokinetic parameters. Mainly include kinetic parameters Tmax, T1/2, Cmax, AUClast etc. Column: ACQUITY UPLC BEH C18 (2.1 mm×50 mm, 1.7 μm); column temperature 40° C.; mobile phase A is water (0.1% formic acid), mobile phase B is acetonitrile, flow rate is 0.350 ml/min, gradient elution is adopted, the elution gradient is 0.50 min: 10% B; 1.50 min: 10% B; 2.30 min: 95% B; 2.31 min: 10% B; 3.00 min: stop. Injection volume: 5 μL.
Animals: 3 male SD rats with a weight range of 200-220 g. After purchase, they will be kept in the laboratory of the Experimental Animal Center for 2 days and then used. They will be fasted for 12 hours predose and 4 hours after dosing. Drinking water is free during the test. After the rats were gavage, blood samples were taken according to the established time point.
Solvent: 0.5% Methylcellulose (aqueous solution containing 0.4% Tween 80 and 1% ethanol). Preparation of the solution for intragastrical administration: accurately weigh the compound, add it to the solvent, and use ultrasound at room temperature for 5 minutes to completely dissolve the drug, and prepare a 0.3 mg/ml medicinal solution.
A single administration was also used to study the pharmacokinetics of the drug sample in rats.
After intragastrical administration, blood was taken from the orbit at 0.25, 0.5, 1, 2, 4, 9, 12 and 24 hours, and placed in a plastic centrifuge tube pretreated with sodium heparin. After centrifugation, the supernatant plasma was used for LC-MS/MS analysis.
Accurately weigh the compounds to prepare different concentrations, perform quantitative analysis on mass spectrometry to establish a standard curve, and then test the concentration of the above-mentioned compound in the plasma to obtain the compound concentration at different time points. All measurement data are collected and processed by relevant software, and the statistical moment method is used to calculate the pharmacokinetic parameters (mainly including kinetic parameters Tmax, T1/2, Cmax, AUClast etc).

[2] = read-out: TRKA kinase inhibitory activity (IC50)

CDK4/CycD3, sequence (P11802 whole entry): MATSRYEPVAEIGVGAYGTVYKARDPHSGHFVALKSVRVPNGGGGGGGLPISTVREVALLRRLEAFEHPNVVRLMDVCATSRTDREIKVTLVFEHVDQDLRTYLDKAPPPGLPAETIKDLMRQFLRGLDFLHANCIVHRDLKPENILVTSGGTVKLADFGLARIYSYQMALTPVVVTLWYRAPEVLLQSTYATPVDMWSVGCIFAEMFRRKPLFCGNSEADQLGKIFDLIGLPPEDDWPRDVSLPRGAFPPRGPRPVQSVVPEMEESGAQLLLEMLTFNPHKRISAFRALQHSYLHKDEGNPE
CDK4/CycD3, sequence (P30281 whole entry partner): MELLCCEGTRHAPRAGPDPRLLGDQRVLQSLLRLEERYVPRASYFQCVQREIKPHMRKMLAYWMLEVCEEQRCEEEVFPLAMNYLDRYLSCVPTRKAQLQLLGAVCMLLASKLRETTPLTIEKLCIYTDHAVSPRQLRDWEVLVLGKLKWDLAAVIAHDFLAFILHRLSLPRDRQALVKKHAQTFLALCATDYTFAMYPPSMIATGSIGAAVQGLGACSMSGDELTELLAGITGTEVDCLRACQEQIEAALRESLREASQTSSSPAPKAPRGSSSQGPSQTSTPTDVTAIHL
TRKA, sequence (P04629 33-796): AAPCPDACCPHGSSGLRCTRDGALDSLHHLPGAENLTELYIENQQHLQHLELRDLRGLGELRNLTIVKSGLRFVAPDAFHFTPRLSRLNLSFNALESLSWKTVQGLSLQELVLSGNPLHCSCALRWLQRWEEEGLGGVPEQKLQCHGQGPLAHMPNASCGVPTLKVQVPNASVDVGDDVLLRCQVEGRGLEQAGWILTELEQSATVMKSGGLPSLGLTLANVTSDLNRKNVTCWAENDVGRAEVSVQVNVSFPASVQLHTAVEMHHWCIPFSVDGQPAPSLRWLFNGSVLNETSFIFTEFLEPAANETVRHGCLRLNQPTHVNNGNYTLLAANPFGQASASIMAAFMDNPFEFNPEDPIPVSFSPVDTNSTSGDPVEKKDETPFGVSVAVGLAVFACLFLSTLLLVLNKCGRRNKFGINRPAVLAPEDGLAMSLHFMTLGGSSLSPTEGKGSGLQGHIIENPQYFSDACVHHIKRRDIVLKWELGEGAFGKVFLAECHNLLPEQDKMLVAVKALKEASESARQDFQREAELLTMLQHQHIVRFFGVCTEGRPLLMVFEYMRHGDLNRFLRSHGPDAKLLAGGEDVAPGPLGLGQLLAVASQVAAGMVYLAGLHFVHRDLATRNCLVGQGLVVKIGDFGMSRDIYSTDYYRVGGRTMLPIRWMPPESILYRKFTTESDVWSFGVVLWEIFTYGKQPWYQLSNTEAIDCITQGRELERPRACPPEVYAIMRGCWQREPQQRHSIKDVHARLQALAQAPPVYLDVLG
CDK6/cycD3, sequence (Q00534 whole entry): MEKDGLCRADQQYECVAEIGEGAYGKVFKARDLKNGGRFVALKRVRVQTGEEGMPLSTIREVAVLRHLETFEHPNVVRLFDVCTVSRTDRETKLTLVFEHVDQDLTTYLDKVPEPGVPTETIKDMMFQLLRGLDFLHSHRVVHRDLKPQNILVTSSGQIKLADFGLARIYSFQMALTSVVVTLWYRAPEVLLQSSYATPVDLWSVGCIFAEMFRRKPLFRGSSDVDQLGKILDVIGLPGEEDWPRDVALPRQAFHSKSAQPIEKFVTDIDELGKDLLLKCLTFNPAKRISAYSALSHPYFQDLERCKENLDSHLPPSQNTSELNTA
CDK6/cycD3, sequence (P30281 whole entry partner): as the sequence (P30281 whole entry partner) above
CDK5/p35NCK, sequence (Q00535 whole entry): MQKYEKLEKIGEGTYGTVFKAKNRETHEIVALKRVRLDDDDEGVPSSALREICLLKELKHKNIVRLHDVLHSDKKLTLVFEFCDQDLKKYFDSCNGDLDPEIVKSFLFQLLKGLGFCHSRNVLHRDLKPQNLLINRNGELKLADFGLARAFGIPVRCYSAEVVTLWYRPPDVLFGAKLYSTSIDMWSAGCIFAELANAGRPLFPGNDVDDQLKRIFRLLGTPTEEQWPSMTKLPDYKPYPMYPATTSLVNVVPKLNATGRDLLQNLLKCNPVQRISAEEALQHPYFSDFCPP
CDK5/p35NCK, sequence (Q15078 whole entry partner): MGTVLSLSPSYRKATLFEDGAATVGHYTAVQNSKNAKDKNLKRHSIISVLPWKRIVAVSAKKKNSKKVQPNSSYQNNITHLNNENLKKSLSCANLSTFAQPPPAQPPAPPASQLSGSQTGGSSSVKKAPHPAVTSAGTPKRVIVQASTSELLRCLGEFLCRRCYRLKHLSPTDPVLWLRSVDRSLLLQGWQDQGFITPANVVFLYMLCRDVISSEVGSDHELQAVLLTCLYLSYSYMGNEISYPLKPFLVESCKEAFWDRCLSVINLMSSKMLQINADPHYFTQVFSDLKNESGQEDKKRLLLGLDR
CDK9/CycT1, sequence (P50750 whole entry): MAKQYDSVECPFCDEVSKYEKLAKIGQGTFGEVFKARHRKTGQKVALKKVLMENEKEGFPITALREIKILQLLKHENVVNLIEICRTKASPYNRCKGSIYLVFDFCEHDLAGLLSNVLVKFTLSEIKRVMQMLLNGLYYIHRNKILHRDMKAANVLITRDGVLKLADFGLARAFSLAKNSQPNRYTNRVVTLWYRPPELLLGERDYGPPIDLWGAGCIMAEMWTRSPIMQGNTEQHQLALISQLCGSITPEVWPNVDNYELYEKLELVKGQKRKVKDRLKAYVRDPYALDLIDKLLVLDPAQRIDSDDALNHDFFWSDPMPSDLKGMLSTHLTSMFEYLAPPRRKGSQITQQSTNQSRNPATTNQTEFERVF
CDK9/CycT1, sequence (O60563 whole entry partner): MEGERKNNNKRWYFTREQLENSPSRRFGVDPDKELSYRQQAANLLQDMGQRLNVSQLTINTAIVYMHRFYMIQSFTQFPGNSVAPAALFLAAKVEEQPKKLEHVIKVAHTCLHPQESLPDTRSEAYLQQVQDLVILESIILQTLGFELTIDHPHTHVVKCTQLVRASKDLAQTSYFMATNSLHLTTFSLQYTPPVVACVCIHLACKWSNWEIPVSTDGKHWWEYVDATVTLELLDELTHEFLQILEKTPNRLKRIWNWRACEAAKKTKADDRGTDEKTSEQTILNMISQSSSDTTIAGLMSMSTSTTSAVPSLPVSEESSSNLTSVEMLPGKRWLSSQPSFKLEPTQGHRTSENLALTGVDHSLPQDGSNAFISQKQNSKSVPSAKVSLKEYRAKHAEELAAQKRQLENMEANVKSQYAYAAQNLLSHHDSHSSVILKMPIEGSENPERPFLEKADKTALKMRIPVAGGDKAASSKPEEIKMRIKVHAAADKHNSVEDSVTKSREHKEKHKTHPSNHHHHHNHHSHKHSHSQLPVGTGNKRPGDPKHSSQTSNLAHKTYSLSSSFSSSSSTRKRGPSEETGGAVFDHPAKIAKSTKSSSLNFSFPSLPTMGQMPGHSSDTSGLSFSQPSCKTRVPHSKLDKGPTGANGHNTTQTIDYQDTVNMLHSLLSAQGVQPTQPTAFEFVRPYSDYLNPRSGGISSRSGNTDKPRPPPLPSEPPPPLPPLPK
CDK16/CycY, sequence (Q00536 whole entry): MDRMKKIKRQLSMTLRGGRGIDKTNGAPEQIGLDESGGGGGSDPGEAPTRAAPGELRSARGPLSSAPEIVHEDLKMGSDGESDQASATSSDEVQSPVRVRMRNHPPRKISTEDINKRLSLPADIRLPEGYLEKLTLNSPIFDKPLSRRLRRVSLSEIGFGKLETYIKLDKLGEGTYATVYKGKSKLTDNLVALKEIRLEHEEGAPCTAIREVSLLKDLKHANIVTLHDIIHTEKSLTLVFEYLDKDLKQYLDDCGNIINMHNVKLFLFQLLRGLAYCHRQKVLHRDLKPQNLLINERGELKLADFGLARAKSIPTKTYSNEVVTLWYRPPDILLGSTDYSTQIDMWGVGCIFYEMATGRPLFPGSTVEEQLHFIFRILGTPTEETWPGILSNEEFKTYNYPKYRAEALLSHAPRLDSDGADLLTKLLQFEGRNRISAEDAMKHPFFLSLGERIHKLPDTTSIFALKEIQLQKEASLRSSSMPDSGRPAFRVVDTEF
CDK16/CycY, sequence (Q8ND76 whole entry partner): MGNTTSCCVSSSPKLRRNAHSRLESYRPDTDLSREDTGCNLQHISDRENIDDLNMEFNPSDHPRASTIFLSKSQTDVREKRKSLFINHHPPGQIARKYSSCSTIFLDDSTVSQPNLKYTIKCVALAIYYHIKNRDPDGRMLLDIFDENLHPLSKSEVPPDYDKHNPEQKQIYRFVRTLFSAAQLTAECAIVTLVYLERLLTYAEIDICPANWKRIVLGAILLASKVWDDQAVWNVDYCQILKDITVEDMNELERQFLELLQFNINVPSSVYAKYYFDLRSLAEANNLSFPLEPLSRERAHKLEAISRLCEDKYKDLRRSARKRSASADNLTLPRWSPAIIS

SMILES	pIC50 (CDK2/CycA2)	pIC50 (CDK4/CycD3)	pIC50 (CDK6/cycD3)	pIC50 (CDK5/p35NCK)	pIC50 (CDK9/CycT1)	pIC50 (CDK16/CycY)	pIC50 (TRKA; [2])	AUC(0-t) [1] [µg·h/mL]	Cmax [1] [µg/mL]	Tmax [1] [h]	half-life [1] [h]	pIC50 (TRKA)
CC(=O)c1c(C)c2cnc(Nc3ccc4c(c3)OC[C@H]3CN(C5CCN(C(C)=O)CC5)CCN43)nc2n(C2CCCC2)c1=O [Compound 5R]	> 7.00	> 8.00	> 7.70	> 6.70	> 7.30	> 6.70	> 8.00	4.35	0.438	6.67	2.91	
CC(=O)c1c(C)c2cnc(Nc3ccc4c(c3)OC[C@@H]3CN(C5CCN(C(C)=O)CC5)CCN43)nc2n(C2CCCC2)c1=O [Compound 5S]	> 7.00	> 8.00	> 8.00					2.48	0.266	6	2.18	
CC(=O)c1c(C)c2cnc(Nc3ccc4c(c3)OC[C@H]3CN(C5CCN(C)CC5)CCN43)nc2n(C2CCCC2)c1=O [Compound 2R]	> 7.00	> 8.00	> 8.00									> 8.00
CC(=O)c1c(C)c2cnc(Nc3ccc4c(c3)N3CCN(C5CCNCC5)C[C@H]3CO4)nc2n(C2CCCC2)c1=O [Compound 20S]	> 6.30											
CC(=O)c1c(C)c2cnc(Nc3cc(F)c4c(c3)OC[C@@H]3CN(C5CCN(C)CC5)CCN43)nc2n(C2CCCC2)c1=O [Compound 9S]	> 6.30	> 8.00	> 7.30					0.697	0.0425	12	15.6	
CC(=O)c1c(C)c2cnc(Nc3ccc4c(c3)OC[C@@H]3CN(C5CCN(C6CC6)CC5)CCN43)nc2n(C2CCCC2)c1=O [Compound 6S]	> 7.00	> 8.00	> 8.00					0.662	0.0549	6.67	4.31	
CC(=O)c1c(C)c2cnc(Nc3ccc4c(c3)OCC3CNCCN43)nc2n(C2CCCC2)c1=O (stereo not shown) [Ref-B, reference compound]								0.108	0.0139	3.33	6.71	
CC(=O)c1c(C)c2cnc(Nc3ccc4c(c3)OC[C@H]3CN(C5CCNCC5)CCN43)nc2n(C2CCCC2)c1=O [Compound 3R]	> 7.00	> 8.00	> 8.00									
CC(=O)c1c(C)c2cnc(Nc3ccc4c(c3)OC[C@@H]3CN(C5CCN(CC(F)(F)F)CC5)CCN43)nc2n(C2CCCC2)c1=O [Compound 16S]	> 6.30	> 8.00										
CC(=O)c1c(C)c2cnc(Nc3ccc4c(c3)OC[C@@H]3CN(C5CCC5)CCN43)nc2n(C2CCCC2)c1=O [Compound 18S]	> 6.30	> 8.00										
CC(=O)c1c(C)c2cnc(Nc3ccc4c(c3)N3CCN(C5CCN(C(C)=O)CC5)C[C@H]3CO4)nc2n(C2CCCC2)c1=O [Compound 21S]	> 6.30											
CC(=O)c1c(C)c2cnc(Nc3ccc4c(c3)OC[C@@H]3CN(C5CC(F)(F)C5)CCN43)nc2n(C2CCCC2)c1=O [Compound 15S]	> 6.00	> 7.30					> 7.00					
CC(=O)c1c(C)c2cnc(Nc3ccc4c(c3)N3CCN(C5CCN(C)CC5)C[C@H]3CO4)nc2n(C2CCCC2)c1=O [Compound 19S]	> 6.30	> 7.00										
CC(=O)c1c(C)c2cnc(Nc3ccc4c(c3)OC[C@@H]3CN(C5CN(C(C)=O)C5)CCN43)nc2n(C2CCCC2)c1=O [Compound 11S]	> 7.00	> 8.00	> 7.70				> 8.00	3	0.424	2	2.61	
CC(=O)c1c(C)c2cnc(Nc3ccc4c(c3)OC[C@@H]3CN(C5CN(C6CC6)C5)CCN43)nc2n(C2CCCC2)c1=O [Compound 12S]	> 7.00	> 8.00	> 8.00									
CC(=O)c1c(C)c2cnc(Nc3ccc4c(c3)OC[C@@H]3CN(C5COC5)CCN43)nc2n(C2CCCC2)c1=O [Compound 13S]	> 7.00	> 8.00	> 7.70					0.86	0.169	1.83	1.95	
CC(=O)c1c(C)c2cnc(Nc3cc(C)c4c(c3)OC[C@@H]3CN(C5CCN(C)CC5)CCN43)nc2n(C2CCCC2)c1=O [Compound 8S]	> 6.30	> 7.70	> 7.00									
CC(=O)c1c(C)c2cnc(Nc3ccc4c(c3)OC[C@@H]3CN(C5CCOCC5)CCN43)nc2n(C2CCCC2)c1=O [Compound 1S]	> 7.00	> 8.00	> 7.70					0.192	0.0373	3	6.41	
CC(=O)c1c(C)c2cnc(Nc3ccc4c(c3)OC[C@@H]3CN(C5CCN(CC#N)CC5)CCN43)nc2n(C2CCCC2)c1=O [Compound 17S]	> 7.00	> 8.00										
CC(=O)c1c(C)c2cnc(Nc3ccc4c(c3)OC[C@@H]3CN(C5CN(S(C)(=O)=O)C5)CCN43)nc2n(C2CCCC2)c1=O [Compound 14S]	> 7.00	> 8.00	> 7.70					2.03	0.442	1.33	1.84	
